Laboratory results as given in paper PMC9270327 (Communications Biology, 2022).
Read-outs that look alike come from different tables or passages of the source.

Tests used:
TMPRSS2 = TMPRSS2 (Homo sapiens, UniProt O15393); test: Cell culture medium stability: residual TMPRSS2 inhibition after incubation in medium
Protocol: The activity of the compounds against the recombinant human enzymes was determined in enzyme inhibition assays. […] The measurements were performed on a Tecan infinite® M1000 and the fluorescence intensity was measured by exciting the AMC fluorophore at 380 nm wavelength and recording emission at 460 nm wavelength. […] Fluorescence intensities and absorption were measured every 2 min for 2 h or as endpoint after 2 h. […] To determine the IC50 values, the concentration-response data were plotted with the program GraphPad prism version 8.4.2 (San Diego, California) and a nonlinear regression fit with the equation [Inhibitor] vs. normalized response was applied. The inhibitory constant Ki was calculated from the IC50 values using the Cheng–Prusoff equation (Ki = IC50/[S]/KM) for competitive reversible inhibitors[66].
The stability of the inhibitors was measured according to a modified procedure from ref. [67]. […] At indicated timepoints, 100 µL samples were taken and mixed with 200 µL of ethanol to precipitate proteins. […] The supernatant was aspirated and analyzed using analytical HPLC. The residual inhibitory constants Ki after incubation was assessed by mixing serial dilutions of the inhibitor with recombinant TMPRSS2 as described above.
were mixed with recombinant TMPRSS2, followed by the addition of the fluorogenic reference
Shown are the means ± SD of n=1 experiment performed in triplicates.

[1] = test system: SARS-CoV-2 Alpha (B.1.1.7), Caco-2 cells; type: cell-based; conditions: for SARS-CoV-2 infection, Mean (0 nM = 100): Fig. 6c, VOC Alpha
[2] = target: cellular TMPRSS2 activity, Caco-2 cells (Homo sapiens, UniProt O15393); conditions: for cellular protease activity on Caco-2 cells, Mean (Fig. 4a): normalized, 0 nM = 100
cellular TMPRSS2 activity, Caco-2 cells, sequence (O15393 whole entry): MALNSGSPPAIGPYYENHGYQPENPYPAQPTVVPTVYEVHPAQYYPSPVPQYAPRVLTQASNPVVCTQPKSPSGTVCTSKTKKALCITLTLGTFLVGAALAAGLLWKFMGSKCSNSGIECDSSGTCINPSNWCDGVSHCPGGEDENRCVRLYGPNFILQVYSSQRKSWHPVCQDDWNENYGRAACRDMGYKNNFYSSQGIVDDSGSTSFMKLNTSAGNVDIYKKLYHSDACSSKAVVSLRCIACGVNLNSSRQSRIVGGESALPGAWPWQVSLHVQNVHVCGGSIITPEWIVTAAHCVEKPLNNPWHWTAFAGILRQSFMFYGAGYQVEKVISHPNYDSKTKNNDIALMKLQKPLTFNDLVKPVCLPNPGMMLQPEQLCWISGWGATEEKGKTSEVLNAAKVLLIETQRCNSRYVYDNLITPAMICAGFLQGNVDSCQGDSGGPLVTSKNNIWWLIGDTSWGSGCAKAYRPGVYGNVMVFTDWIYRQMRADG
Protocol: In total, 10,000 Caco-2 cells (ATCC) in 100 µL EMEM medium supplemented with 10% FBS, 100 U/mL penicillin, […] streptomycin, and 2 mM glutamine (all Invitrogen, Germany) were seeded per well in a 96-well plate and incubated at 37 °C for 4 days until full confluency of the cells. The cells were washed two times with PBS and EMEM medium without FBS was added. […] The fluorescence intensity was measured as described above. In all, 20,000 HEK293T cells (ATCC) were seeded in 100 µL DMEM supplemented with 10% FBS, 100 U/mL penicillin, […] streptomycin, and 2 mM glutamine. […] After 14 h, transfection mix was removed from the cells and 80 µL fresh medium without FBS and 10 µL inhibitors were added (final concentration 50 µM). […] Fluorescence intensity was measured after 2 h at 37 °C as described above.

[3] = test system: lentiviral pseudoparticles carrying SARS-CoV-2 Delta (B.1.617.2) spike, Caco-2 cells; type: cell-based; conditions: for SARS-CoV-2 spike driven entry, Mean (0 nM = 100): Fig. 5d

TMPRSS2, sequence (O15393 whole entry): as above

Substance: ace-Arg-Pro-Arg-kbt [Compound 2]
- Residual TMPRSS2 activity, Mean (0 nM = 100) (TMPRSS2; inhibitor 0.167 nM, 24 h in cell culture medium): 97.7945
- Residual TMPRSS2 activity, Mean (0 nM = 100) (TMPRSS2; inhibitor 0.167 nM, 10 d in cell culture medium): 101.036
- Residual TMPRSS2 activity, Mean (0 nM = 100) (TMPRSS2; inhibitor 0.167 nM, positive ctrl): 98.5654
- Residual TMPRSS2 activity, Mean (0 nM = 100) (TMPRSS2; inhibitor 1.665 nM, 0 min in cell culture medium): 97.2536
- Residual TMPRSS2 activity, Mean (0 nM = 100) (TMPRSS2; inhibitor 1.665 nM, 30 min in cell culture medium): 96.1305
- Residual TMPRSS2 activity, Mean (0 nM = 100) (TMPRSS2; inhibitor 1.665 nM, 60 min in cell culture medium): 95.956
- Residual TMPRSS2 activity, Mean (0 nM = 100) (TMPRSS2; inhibitor 1.665 nM, 120 min in cell culture medium): 95.462
- Residual TMPRSS2 activity, Mean (0 nM = 100) (TMPRSS2; inhibitor 1.665 nM, 24 h in cell culture medium): 97.8646
- Residual TMPRSS2 activity, Mean (0 nM = 100) (TMPRSS2; inhibitor 1.665 nM, 10 d in cell culture medium): 97.0442
- Residual TMPRSS2 activity, Mean (0 nM = 100) (TMPRSS2; inhibitor 1.665 nM, positive ctrl): 88.6541
- Residual TMPRSS2 activity, Mean (0 nM = 100) (TMPRSS2; inhibitor 16.65 nM, 0 min in cell culture medium): 83.5545
- Residual TMPRSS2 activity, Mean (0 nM = 100) (TMPRSS2; inhibitor 16.65 nM, 30 min in cell culture medium): 80.8705
- Residual TMPRSS2 activity, Mean (0 nM = 100) (TMPRSS2; inhibitor 16.65 nM, 60 min in cell culture medium): 72.3193
- Residual TMPRSS2 activity, Mean (0 nM = 100) (TMPRSS2; inhibitor 16.65 nM, 120 min in cell culture medium): 83.5842
- Residual TMPRSS2 activity, Mean (0 nM = 100) (TMPRSS2; inhibitor 16.65 nM, 24 h in cell culture medium): 87.4426
- Residual TMPRSS2 activity, Mean (0 nM = 100) (TMPRSS2; inhibitor 16.65 nM, 10 d in cell culture medium): 88.0057
- Residual TMPRSS2 activity, Mean (0 nM = 100) (TMPRSS2; inhibitor 16.65 nM, positive ctrl): 59.7774
- Residual TMPRSS2 activity, Mean (0 nM = 100) (TMPRSS2; inhibitor 166.5 nM, 0 min in cell culture medium): 18.9266
- Residual TMPRSS2 activity, Mean (0 nM = 100) (TMPRSS2; inhibitor 166.5 nM, 30 min in cell culture medium): 17.6545
- Residual TMPRSS2 activity, Mean (0 nM = 100) (TMPRSS2; inhibitor 166.5 nM, 60 min in cell culture medium): 24.0301
- Residual TMPRSS2 activity, Mean (0 nM = 100) (TMPRSS2; inhibitor 166.5 nM, 120 min in cell culture medium): 22.2899
- Residual TMPRSS2 activity, Mean (0 nM = 100) (TMPRSS2; inhibitor 166.5 nM, 24 h in cell culture medium): 22.0487
- Residual TMPRSS2 activity, Mean (0 nM = 100) (TMPRSS2; inhibitor 166.5 nM, 10 d in cell culture medium): 39.6688
- Residual TMPRSS2 activity, Mean (0 nM = 100) (TMPRSS2; inhibitor 166.5 nM, positive ctrl): 18.9416
- Residual TMPRSS2 activity, Mean (0 nM = 100) (TMPRSS2; inhibitor 1665 nM, 0 min in cell culture medium): -1.499
- Residual TMPRSS2 activity, Mean (0 nM = 100) (TMPRSS2; inhibitor 1665 nM, 30 min in cell culture medium): 5.536
- Residual TMPRSS2 activity, Mean (0 nM = 100) (TMPRSS2; inhibitor 1665 nM, 60 min in cell culture medium): 0.2889
- Residual TMPRSS2 activity, Mean (0 nM = 100) (TMPRSS2; inhibitor 1665 nM, 120 min in cell culture medium): -1.86
- Residual TMPRSS2 activity, Mean (0 nM = 100) (TMPRSS2; inhibitor 1665 nM, 24 h in cell culture medium): -0.886
- Residual TMPRSS2 activity, Mean (0 nM = 100) (TMPRSS2; inhibitor 1665 nM, 10 d in cell culture medium): 10.1282
- Residual TMPRSS2 activity, Mean (0 nM = 100) (TMPRSS2; inhibitor 1665 nM, positive ctrl): 0.02381
- SARS-CoV-2 infection, Mean (0 nM = 100) ([1]; compound 32 nM): 106.285
- SARS-CoV-2 infection, Mean (0 nM = 100) ([1]; compound 160 nM): 107.747
- SARS-CoV-2 infection, Mean (0 nM = 100) ([1]; compound 800 nM): 109.671
- SARS-CoV-2 infection, Mean (0 nM = 100) ([1]; compound 4000 nM): 112.829
- SARS-CoV-2 infection, Mean (0 nM = 100) ([1]; compound 20000 nM): 1.3092
- SARS-CoV-2 infection, Mean (0 nM = 100) ([1]; compound 100000 nM): -2.734
- IC50 ([1]; read-out: IC50 SARS-CoV-2 Alpha): ~20000 nM
- cellular protease activity on Caco-2 cells, Mean (Fig. 4a) ([2]; 0.1 nM): 109.802
- cellular protease activity on Caco-2 cells, Mean (Fig. 4a) ([2]; 1 nM): 82.1942
- cellular protease activity on Caco-2 cells, Mean (Fig. 4a) ([2]; 10 nM): 70.6835
- cellular protease activity on Caco-2 cells, Mean (Fig. 4a) ([2]; 100 nM): 32.9137
- cellular protease activity on Caco-2 cells, Mean (Fig. 4a) ([2]; 1000 nM): -3.058
- cellular protease activity on Caco-2 cells, Mean (Fig. 4a) ([2]; 10000 nM): 1.349
- cellular protease activity on Caco-2 cells, Mean (Fig. 4a) ([2]; 100000 nM): 2.158
- IC50 ([2]; read-out: IC50 Caco2, cell-mediated proteolysis of Boc-Gln-Ala-Arg-AMC, 30 min preincubation): 32 nM
- IC50 ([3]; Caco-2 cells, luciferase 2 days post transduction, read-out: IC50 pseudotyped lentivirus Delta): 627 nM
- SARS-CoV-2 spike driven entry, Mean (0 nM = 100) ([3]; compound 3.2 nM): 94.6384
- SARS-CoV-2 spike driven entry, Mean (0 nM = 100) ([3]; compound 16 nM): 93.9983
- SARS-CoV-2 spike driven entry, Mean (0 nM = 100) ([3]; compound 80 nM): 82.6624
- SARS-CoV-2 spike driven entry, Mean (0 nM = 100) ([3]; compound 400 nM): 60.9224
- SARS-CoV-2 spike driven entry, Mean (0 nM = 100) ([3]; compound 2000 nM): 29.6704
- SARS-CoV-2 spike driven entry, Mean (0 nM = 100) ([3]; compound 10000 nM): 4.245
- SARS-CoV-2 spike driven entry, Mean (0 nM = 100) ([3]; compound 50000 nM): 0.86
